Reference: publication PMC5909127, “Optimization of a “bump-and-hole” approach to allele-selective BET bromodomain inhibition” (Chemical Science, 2018)
Like-named read-outs stand apart in the source and are kept apart here.

Legend:
BRD2 BD1 WT = BRD2 BD1 WT (Homo sapiens, UniProt P25440); assay: competitive AlphaLISA; format: binding
BRD2 BD2 WT = BRD2 BD2 WT (Homo sapiens, UniProt P25440); assay: competitive AlphaLISA; format: binding
BRD2 BD2 L/V = BRD2 BD2 L/V (Homo sapiens, UniProt P25440, L383V); assay: competitive AlphaLISA; format: binding
BRD2 BD2 L/V, sequence (P25440 344-455 L383V): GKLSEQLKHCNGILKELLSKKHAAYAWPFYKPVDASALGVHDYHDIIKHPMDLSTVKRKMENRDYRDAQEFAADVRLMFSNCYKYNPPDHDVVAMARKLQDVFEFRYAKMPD

BRD3 BD1 WT = BRD3 BD1 WT (Homo sapiens, UniProt Q15059); assay: competitive AlphaLISA; format: binding
BRD3 BD1 WT, sequence (Q15059 24-144): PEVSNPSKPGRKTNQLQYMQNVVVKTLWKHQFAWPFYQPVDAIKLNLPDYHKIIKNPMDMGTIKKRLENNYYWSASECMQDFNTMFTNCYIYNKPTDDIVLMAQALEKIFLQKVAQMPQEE

BRD3 BD1 L/V = BRD3 BD1 L/V (Homo sapiens, UniProt Q15059, L70V); assay: competitive AlphaLISA; format: binding
BRD3 BD1 L/V, sequence (Q15059 24-144 L70V limits assumed): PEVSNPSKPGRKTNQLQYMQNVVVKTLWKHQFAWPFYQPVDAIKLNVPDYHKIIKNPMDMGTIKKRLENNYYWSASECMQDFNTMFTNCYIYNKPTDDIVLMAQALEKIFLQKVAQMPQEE

BRD3 BD2 L/V = BRD3 BD2 L/V (Homo sapiens, UniProt Q15059, L345V); assay: competitive AlphaLISA; format: binding
BRD3 BD2 L/V, sequence (Q15059 306-416 L345V limits assumed): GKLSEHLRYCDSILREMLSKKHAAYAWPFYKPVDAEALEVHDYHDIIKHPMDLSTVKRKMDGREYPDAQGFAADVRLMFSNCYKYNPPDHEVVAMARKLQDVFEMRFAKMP

BRDT BD1 WT = BRDT BD1 WT (Homo sapiens, UniProt Q58F21); assay: competitive AlphaLISA; format: binding
BRDT BD2 L/V = BRDT BD2 L/V (Homo sapiens, UniProt Q58F21, L306V); assay: competitive AlphaLISA; format: binding
in vitro = conditions: PAMPA, pH 7.4
Plasma Half-life = conditions: BALB/c, mouse, pH 7.4
Intrinsic Clearance = conditions: mouse liver microsomes
[1] = target: WT BET bromodomains (BD1 and BD2 of BRD2, BRD3 and BRD4); assay: competitive AlphaLISA (Bio-JQ1 displacement); format: binding, human; conditions: mean and SD of all somatic bromodomains; active enantiomer concentration
[2] = tested on: L/V BET bromodomains (BD1 and BD2 of BRD2, BRD3 and BRD4); assay: competitive AlphaLISA (Bio-JQ1 displacement); format: binding, human; conditions: for AlphaLISA pIC50 ± SD Δ: L/V minus WT; for AlphaLISA pIC50 ± SD L/V: mean and SD of all somatic bromodomains, active enantiomer concentration
BRD2 BD1 L/V = BRD2 BD1 L/V (Homo sapiens, UniProt P25440, L110V); assay: competitive AlphaLISA; format: binding
BRD2 BD1 L/V, sequence (P25440 71-176 L110V limits assumed): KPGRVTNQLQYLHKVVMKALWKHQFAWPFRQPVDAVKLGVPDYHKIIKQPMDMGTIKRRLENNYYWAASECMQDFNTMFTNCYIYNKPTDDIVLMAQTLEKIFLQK

BRD3 BD2 WT = BRD3 BD2 WT (Homo sapiens, UniProt Q15059); assay: competitive AlphaLISA; format: binding
BRD3 BD2 WT, sequence (Q15059 306-416): as the sequence (Q15059 306-416 L345V limits assumed) above, with V40L counted along it

BRD4 BD1 WT = BRD4 BD1 WT (Homo sapiens, UniProt O60885); assay: competitive AlphaLISA; format: binding; conditions: AlphaLISA pIC50 Value BRD4 BD1 WT
BRD4 BD1 L/V = BRD4 BD1 L/V (Homo sapiens, UniProt O60885, L94V); assay: competitive AlphaLISA; format: binding; conditions: AlphaLISA pIC50 Value BRD4 BD1 L/V
BRD4 BD2 WT = BRD4 BD2 WT (Homo sapiens, UniProt O60885); assay: competitive AlphaLISA; format: binding
BRD4 BD2 L/V = BRD4 BD2 L/V (Homo sapiens, UniProt O60885, L387V); assay: competitive AlphaLISA; format: binding
BRDT BD1 L/V = BRDT BD1 L/V (Homo sapiens, UniProt Q58F21, L63V); assay: competitive AlphaLISA; format: binding
BRDT BD2 WT = BRDT BD2 WT (Homo sapiens, UniProt Q58F21); assay: competitive AlphaLISA; format: binding

BRD2 BD2 WT, sequence (P25440 344-455): as the sequence (P25440 344-455 L383V) above, with V40L counted along it
BRD2 BD1 WT, sequence (P25440 71-176): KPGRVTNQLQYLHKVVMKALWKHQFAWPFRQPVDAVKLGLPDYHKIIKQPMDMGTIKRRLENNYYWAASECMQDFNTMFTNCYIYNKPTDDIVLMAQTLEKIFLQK

COC(=O)CC1N=C(c2ccc(Cl)cc2)c2cc(OC)ccc2-n2c(C)nnc21 (stereo not shown) [Compound 1]
IC50 (BRD2 BD1 WT): 0.316 µM
IC50 (BRD2 BD2 WT): 0.316 µM
IC50 (BRD2 BD2 L/V): 316 nM
IC50 (BRD3 BD1 WT): 0.126 µM
IC50 (BRD3 BD1 L/V): 63.1 nM
IC50 (BRD3 BD2 L/V): 501 nM
IC50 (BRDT BD1 WT): 0.501 µM
IC50 (BRDT BD2 L/V): 1000 nM
Papp (in vitro): 14.9 ×10⁻⁶ cm/s
half-life at 50 µM (Plasma Half-life): 54 min
CL int (Intrinsic Clearance): <0.5 ml min^–1 g^–1

COC(=O)CC1N=C(c2ccc(Cl)cc2)c2ccc(OC)cc2-n2c(C)nnc21 (stereo not shown) [Compound 2]
AlphaLISA pIC50 ± SD WT [1]: 5.8 ± 0.2
AlphaLISA pIC50 ± SD Δ [2]: 0.1 ± 0.1
AlphaLISA pIC50 ± SD L/V [2]: 5.9 ± 0.2
IC50 (BRD2 BD1 WT): 2 µM
IC50 (BRD2 BD1 L/V): 1580 nM
IC50 (BRD2 BD2 WT): 2.51 µM
IC50 (BRD2 BD2 L/V): 2000 nM
IC50 (BRD3 BD1 L/V): 501 nM
IC50 (BRD3 BD2 WT): 2.51 µM
IC50 (BRD3 BD2 L/V): 1000 nM
IC50 (BRD4 BD1 WT): 1 µM
IC50 (BRD4 BD1 L/V): 1000 nM
IC50 (BRD4 BD2 WT): 2.51 µM
IC50 (BRD4 BD2 L/V): 2510 nM
IC50 (BRDT BD1 WT): 2 µM
IC50 (BRDT BD1 L/V): 1580 nM
IC50 (BRDT BD2 WT): 3.98 µM
IC50 (BRDT BD2 L/V): 3160 nM
half-life at 50 µM (Plasma Half-life): 67 min
CL int (Intrinsic Clearance): 1.7 ml min^–1 g^–1

CC[C@@H](C(=O)OC(C)(C)C)[C@@H]1N=C(c2ccc(Cl)cc2)c2cc(OC)ccc2-n2c(C)nnc21 [Compound 23]
AlphaLISA pIC50 ± SD WT [1]: 5.3 ± 0.1
AlphaLISA pIC50 ± SD Δ [2]: 0.7 ± 0.1
AlphaLISA pIC50 ± SD L/V [2]: 6.0 ± 0.2
IC50 (BRD2 BD1 WT): 5.01 µM
IC50 (BRD2 BD1 L/V): 1580 nM
IC50 (BRD2 BD2 WT): 5.01 µM
IC50 (BRD2 BD2 L/V): 1000 nM
IC50 (BRD3 BD1 WT): 2.51 µM
IC50 (BRD3 BD1 L/V): 398 nM
IC50 (BRD3 BD2 WT): 5.01 µM
IC50 (BRD3 BD2 L/V): 794 nM
IC50 (BRD4 BD1 WT): 5.01 µM
IC50 (BRD4 BD1 L/V): 794 nM
IC50 (BRD4 BD2 WT): 6.31 µM
IC50 (BRD4 BD2 L/V): 1580 nM
IC50 (BRDT BD1 WT): 6.31 µM
IC50 (BRDT BD1 L/V): 2510 nM
IC50 (BRDT BD2 WT): 6.31 µM
IC50 (BRDT BD2 L/V): 2510 nM
half-life at 50 µM (Plasma Half-life): > 180 min
CL int (Intrinsic Clearance): 30.7 ml min^–1 g^–1

C=CC[C@@H](C(=O)OC(C)(C)C)[C@@H]1N=C(c2ccc(Cl)cc2)c2cc(OC)ccc2-n2c(C)nnc21 [Compound 24]
AlphaLISA pIC50 ± SD WT [1]: 5.3 ± 0.1
AlphaLISA pIC50 ± SD Δ [2]: 0.9 ± 0.2
AlphaLISA pIC50 ± SD L/V [2]: 6.2 ± 0.2
IC50 (BRD2 BD1 WT): 5.01 µM
IC50 (BRD2 BD1 L/V): 1260 nM
IC50 (BRD2 BD2 WT): 7.94 µM
IC50 (BRD2 BD2 L/V): 501 nM
IC50 (BRD3 BD1 WT): 3.98 µM
IC50 (BRD3 BD1 L/V): 316 nM
IC50 (BRD3 BD2 WT): 6.31 µM
IC50 (BRD3 BD2 L/V): 794 nM
IC50 (BRD4 BD1 WT): 5.01 µM
IC50 (BRD4 BD2 WT): 3.98 µM
IC50 (BRD4 BD2 L/V): 1000 nM
IC50 (BRDT BD1 WT): 7.94 µM
IC50 (BRDT BD1 L/V): 2000 nM
IC50 (BRDT BD2 WT): 10 µM
IC50 (BRDT BD2 L/V): 1580 nM
half-life at 50 µM (Plasma Half-life): > 180 min
CL int (Intrinsic Clearance): 39.1 ml min^–1 g^–1

CC[C@@H](C(=O)OC(C)(C)C)[C@@H]1N=C(c2ccc(Cl)cc2)c2ccc(OC)cc2-n2c(C)nnc21 [Compound 25]
AlphaLISA pIC50 ± SD WT [1]: 4.6 ± 0.1
AlphaLISA pIC50 ± SD Δ [2]: 0.4 ± 0.2
AlphaLISA pIC50 ± SD L/V [2]: 5.0 ± 0.2
IC50 (BRD2 BD1 WT): 39.8 µM
IC50 (BRD2 BD1 L/V): 10000 nM
IC50 (BRD2 BD2 WT): 20 µM
IC50 (BRD3 BD1 WT): 20 µM
IC50 (BRD3 BD1 L/V): 5010 nM
IC50 (BRD3 BD2 WT): 25.1 µM
IC50 (BRD3 BD2 L/V): 10000 nM
IC50 (BRD4 BD1 WT): 15.8 µM
IC50 (BRD4 BD1 L/V): 7940 nM
IC50 (BRD4 BD2 WT): 25.1 µM
IC50 (BRD4 BD2 L/V): 20000 nM
IC50 (BRDT BD1 WT): 25.1 µM
IC50 (BRDT BD2 WT): 39.8 µM
half-life at 50 µM (Plasma Half-life): > 180 min
CL int (Intrinsic Clearance): 31.0 ml min^–1 g^–1

C=CC[C@@H](C(=O)OC(C)(C)C)[C@@H]1N=C(c2ccc(Cl)cc2)c2ccc(OC)cc2-n2c(C)nnc21 [Compound 26]
AlphaLISA pIC50 ± SD WT [1]: 5.2 ± 0.2
AlphaLISA pIC50 ± SD Δ [2]: 0.5 ± 0.1
AlphaLISA pIC50 ± SD L/V [2]: 5.8 ± 0.2
IC50 (BRD2 BD1 WT): 7.94 µM
IC50 (BRD2 BD1 L/V): 2510 nM
IC50 (BRD2 BD2 WT): 6.31 µM
IC50 (BRD2 BD2 L/V): 1580 nM
IC50 (BRD3 BD1 WT): 3.16 µM
IC50 (BRD3 BD1 L/V): 1260 nM
IC50 (BRD3 BD2 WT): 5.01 µM
IC50 (BRD3 BD2 L/V): 1260 nM
IC50 (BRD4 BD1 WT): 6.31 µM
IC50 (BRD4 BD1 L/V): 1580 nM
IC50 (BRD4 BD2 WT): 10 µM
IC50 (BRD4 BD2 L/V): 3160 nM
IC50 (BRDT BD1 WT): 10 µM
IC50 (BRDT BD1 L/V): 3980 nM
IC50 (BRDT BD2 WT): 10 µM
IC50 (BRDT BD2 L/V): 2510 nM
half-life at 50 µM (Plasma Half-life): > 180 min
CL int (Intrinsic Clearance): 39.4 ml min^–1 g^–1

CCNC(=O)C[C@@H]1N=C(c2ccc(Cl)cc2)c2cc(OC)ccc2-n2c(C)nnc21 [I-BET762, reference compound]
IC50 (BRDT BD1 L/V; read-out: AlphaLISA pIC50 Value BRDT BD1 L/V (converted)): 1000 nM
